Measured values as given in PMC9716094, “Synthesis of novel amidines via one-pot three component reactions: Selective topoisomerase I inhibitors with antiproliferative properties” (Frontiers in Chemistry, 2022).

Assays:
[1] = tested on: A-549 (epithelial cancer cell line); assay: Antiproliferative assay, A-549; format: cell-based; details: Homo sapiens, A549; read-out: Antiproliferative activity IC50 ± SEM, A-549
Text: (§1) See Supplementary Appendix S1A.
(§2) DMSO (0.1%) was used as control.

[2] = tested on: HT-29 (colon cancer cell line); assay: Antiproliferative assay, HT-29; details: Homo sapiens, HT-29, read-out: Antiproliferative activity IC50 ± SEM, HT-29
Procedure: (§3) The IC50 of each compound was calculated using doxorubicin as the reference.
(§4) To explore the antiproliferative potential of compounds MTT assay was performed according to previously reported procedure using different cell lines to explore the antiproliferative potential of compounds propidium iodide fluorescence assay was performed using different cell lines. To calculate the total nuclear DNA, a fluorescent dye (propidium iodide, PI) is used which can attach to the DNA, thus offering a quick and precise technique. PI cannot pass through the cell membrane and its signal intensity can be considered as directly proportional to quantity of cellular DNA. Cells whose cell membranes are damaged or have changed permeability are counted as dead ones. The assay was performed by seeding the cells of different cell lines at a density of 3000-7500 cells/well (in 200µl medium) in culture plates followed by incubation for 24h at 37 °C in humidified 5% CO2/95% air atmospheric conditions. The medium was removed; the compounds were added to the plates at 10 µM concentrations (in 0.1% DMSO) in triplicates, followed by incubation for 48 h. DMSO (0.1%) was used as control. After incubation, medium was removed followed by the addition of PI (25 µl, 50µg/mL in water/medium) to each well of the plates. At -80 °C, the plates were allowed to freeze for 24 h, followed by thawing at 25 °C. A fluorometer (Polar-Star BMG Tech) was used to record the readings at excitation and emission wavelengths of 530 and 620 nm for each well. The percentage cytotoxicity of compounds was calculated using the following formula:

[3] = tested on: MCF-7 (breast cancer cell line); assay: Antiproliferative assay, MCF-7; format: cell-based; details: Homo sapiens, MCF7; read-out: Antiproliferative activity IC50 ± SEM, MCF-7
Text: as §1, §2

[4] = tested on: four cancer cell lines (A-549, MCF-7, Panc-1, HT-29); assay: Antiproliferative assay, average over the four cancer cell lines (GI50); details: for IC50: read-out: Antiproliferative activity IC50, Average (mean GI50); for Fold less potent than the reference doxorubicin (GI50): mean GI50 compared with doxorubicin
Procedure: as §3, §4

[5] = Cell viability assay (MTT) on normal cell line; format: cell-based; details: human, MCF-10A mammary epithelial cells, 50 µM of compound;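 further: values are percent cell viability not percent inhibition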
Procedure: To study the effect of 4a-l and 5a-c on normal cell lines, a cell viability assay was done using the MCF-10A (human mammary gland epithelial) cell line ([Abdelbaset et al., 2019]; [Al-Wahaibi et al., 2020]). This study uses a concentration of 50 µM of the investigated compound for 4 days, after which cell viability is evaluated.
To study the effect of 4a-l and 5a-c on normal cell lines, a cell viability assay was done using the MCF-10A (human mammary gland epithelial) cell line ([Abdelbaset et al., 2019]; [Al-Wahaibi et al., 2020]). See Supplementary Appendix S1A.
MTT assay was carried out to study the effect of compounds on mammary epithelial cells (MCF-10A). The medium in which cells were propagated contained Dulbecco's modified Eagle's medium (DMEM)/ Ham's F-12 medium (1:1) supplemented with epidermal growth factor (20 ng/mL), hydrocortisone (500 ng/mL), insulin (10 μg/mL), 2 mM glutamine and 10% fetal calf serum. After every 2-3 days, the cells were passaged using trypsin ethylenediamine tetra acetic acid (EDTA). The cells were seeded at a density of 10^4 cells mL^-1 in flat-bottomed culture plates containing 96 wells each. After 24 h, medium was removed from the plates and the compounds in (in 0.1% DMSO) were added (in 200 μL medium to yield a final concentration of 0.1% v/v) to the wells of plates. A single compound was designated with four wells followed by incubation of plates for 96h at 37°C. After incubation, medium was removed completely from the plates followed by addition of MTT (0.4 mg/mL in medium) to each well and subsequent incubation of plates for 3h. MTT (along with the medium) was removed and DMSO (150μL) was added to each well of the culture plates, followed by vortexing and subsequent measurement of absorbance (at 540 nm) using microplate reader. The data are shown as percentage inhibition of proliferation in comparison with controls containing 0.1% DMSO.

[6] = tested on: Panc-1 (pancreas cancer cell line); assay: Antiproliferative assay, Panc-1; format: cell-based; details: Homo sapiens, read-out: Antiproliferative activity IC50 ± SEM, Panc-1
Text: as §1, §2

[7] = biological target: T1, recombinant human DNA topo I (Homo sapiens, UniProt P11387); assay: Topo I inhibitory assay (pBR322 relaxation); format: biochemical
T1 construct: purchased Topo GEN INC., USA
T1 sequence (P11387 1-765): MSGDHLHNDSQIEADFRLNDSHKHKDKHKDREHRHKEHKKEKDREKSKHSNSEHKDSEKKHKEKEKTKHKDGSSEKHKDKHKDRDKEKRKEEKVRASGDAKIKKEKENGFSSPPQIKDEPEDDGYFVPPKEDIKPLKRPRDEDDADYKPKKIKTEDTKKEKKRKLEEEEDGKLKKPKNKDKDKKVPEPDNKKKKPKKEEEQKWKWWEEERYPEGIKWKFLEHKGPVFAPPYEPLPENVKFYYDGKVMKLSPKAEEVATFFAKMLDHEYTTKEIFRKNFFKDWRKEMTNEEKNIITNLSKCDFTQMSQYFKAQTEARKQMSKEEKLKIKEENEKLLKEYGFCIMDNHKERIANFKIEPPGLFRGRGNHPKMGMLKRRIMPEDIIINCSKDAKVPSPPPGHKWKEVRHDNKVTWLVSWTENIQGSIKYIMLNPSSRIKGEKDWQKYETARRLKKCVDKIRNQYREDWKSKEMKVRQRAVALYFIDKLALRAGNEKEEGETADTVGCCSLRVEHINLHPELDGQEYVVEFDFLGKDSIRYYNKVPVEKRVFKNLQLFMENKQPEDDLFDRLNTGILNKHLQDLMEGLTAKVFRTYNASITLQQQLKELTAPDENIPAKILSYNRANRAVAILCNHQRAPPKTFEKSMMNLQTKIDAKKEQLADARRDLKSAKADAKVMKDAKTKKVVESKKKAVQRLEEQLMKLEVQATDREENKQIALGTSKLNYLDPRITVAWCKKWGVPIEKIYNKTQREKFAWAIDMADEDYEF
Procedure: All the tested compounds were dissolved in DMSO and the DNA topoisomerase I and II inhibitory activity of each compound was measured as follows according to previously reported methods. Mixture comprising of 100 ng supercoiled pBR322 plasmid DNA (Thermo Scientific, USA) and 0.2 ~ 1 unit of recombinant human DNA topo I (Topo GEN INC., USA) or topo IIα (USB Corp., USA) was incubated with or without the prepared compounds in the assay buffer (For topo I, 10 mM Tris-HCl (pH 7.9), 150 mM NaCl and 0.1% BSA, 0.1 mM spermidine and 5% glycerol; for topo II, 10 mM Tris-HCl (pH 7.9), 50 mM NaCl, 50 mM KCl, 5 mM MgCl2, 1 mM EDTA, 1 mM ATP and […] BSA) for 30 min at 37 ◦C. The reaction with final volume of 10 μL was stopped by adding the topo stop buffer (For topo I, 10% SDS solution containing 0.2% bromophenol blue, 0.2% xylene cyanol and 30% glycerol; for topo II, 7 mM EDTA). The reaction products were electrophoresed on 0.8% agarose gel at 50 V for 1 h with TAE electrophoresis buffer. The gels were stained in an EtBr solution (0.5 mg/mL) and visualized by transillumination with UV light and were quantitated using Alpha Tech ImagerTM (Alpha Innotech Corp., USA).

SMILES | IC50 [1] | IC50 [2] | IC50 [3] | melting point | IC50 [4] | viability at 4 days, 50 µM [5] | IC50 [6] | inhibition at 20 µM [7] | inhibition at 100 µM [7] | Fold less potent than the reference doxorubicin (GI50) [4]
Cc1ccc2[nH]c(=O)cc(/N=C(\C3CCCC3)N3CCOCC3)c2c1 [Compound 4h, (E) 4-((Cyclopentyl(morpholino)methylene)amino)-6-methylquinolin-2(1H)-one] | 2.6 ± 0.2 µM | 2.3 ± 0.2 µM | 1.9 ± 0.2 µM | 226 °C | 2.3 µM | 91% | 2.3 ± 0.2 µM |  |  | 
Cc1cccc2c(/N=C(\C3CCCC3)N3CCOCC3)cc(=O)[nH]c12 [Compound 4k, (E) 4-((Cyclopentyl(morpholino)methylene)amino)-8-methylquinolin-2(1H)-one] | 4.6 ± 0.4 µM | 4.1 ± 0.4 µM | 4.05 ± 0.4 µM | 220 °C | 4.2 µM | 91% | 4.2 ± 0.4 µM |  |  | 
CC[C@@]1(O)C(=O)OCc2c1cc1n(c2=O)Cc2cc3ccccc3nc2-1 [Camptothecin, reference compound] |  |  |  |  |  |  |  | 40% | 82.6% | 
Cc1ccc2[nH]c(=O)cc(/N=C(\C3CCCC3)N3CCN(/C(=N/c4cc(=O)[nH]c5ccc(C)cc45)C4CCCC4)CC3)c2c1 [Compound 5b, 4,4'-((1E,1′E)-(piperazine-1,4-diylbis(cyclopentylmethanylylidene))bis(azanylylid-ene))bis(6-methylquinolin-2(1H)-one)] | 4.1 ± 0.3 µM | 3.8 ± 0.3 µM | 3.7 ± 0.3 µM | 355 °C | 3.9 µM | 91% | 3.9 ± 0.3 µM |  |  | 
Cn1c(=O)cc(/N=C(\C2CCCC2)N2CCOCC2)c2ccccc21 [Compound 4l, (E) 4-((Cyclopentyl(morpholino)methylene)amino)-1-methylquinolin-2(1H)-one] | 7.6 ± 0.7 µM | 7.2 ± 0.7 µM | 7.1 ± 0.7 µM |  | 7.3 µM | 89% | 7.4 ± 0.7 µM |  |  | at least 6 fold
COc1cccc2c1C(=O)c1c(O)c3c(c(O)c1C2=O)C[C@@](O)(C(=O)CO)C[C@@H]3O[C@H]1C[C@H](N)[C@H](O)[C@H](C)O1 [Doxorubicin, reference compound] | 1.2 ± 0.1 µM | 1 ± 0.1 µM | 0.9 ± 0.1 µM |  | 1.1 µM |  | 1.4 ± 0.2 µM |  |  | 
O=c1cc(/N=C(\C2CCCC2)N2CCN(/C(=N/c3cc(=O)[nH]c4ccccc34)C3CCCC3)CC2)c2ccccc2[nH]1 [Compound 5a, 4,4'-((1E,1′E)-(piperazine-1,4-diylbis(cyclopentylmethanylylidene))bis(azanylylid-ene))bis(quinolin-2(1H)-one)] | 5.15 ± 0.3 µM | 5.1 ± 0.3 µM | 4.7 ± 0.4 µM | 360 °C | 5 µM | 91% | 4.9 ± 0.3 µM |  |  | 
O=c1cc(/N=C(\C2CCCC2)N2CCOCC2)c2ccccc2[nH]1 [Compound 4g, (E) 4-((Cyclopentyl(morpholino)methylene)amino)quinolin-2(1H)-one] | 6.3 ± 0.6 µM | 6.2 ± 0.6 µM | 5.9 ± 0.6 µM |  | 6.1 µM | 89% | 6.1 ± 0.6 µM |  |  | at least 6 fold
COc1ccc2[nH]c(=O)cc(/N=C(\C3CCCC3)N3CCCCC3)c2c1 [Compound 4c, (E) 4-((Cyclopentyl(piperidin-1-yl)methylene)amino)-6-methoxyquinolin-2(1H)-one] | 2.3 ± 0.2 µM | 2.2 ± 0.2 µM | 1.9 ± 0.2 µM | 250 °C | 2.1 µM | 91% | 2.05 ± 0.2 µM |  |  | 
O=c1cc(/N=C(\C2CCCC2)N2CCCCC2)c2ccccc2[nH]1 [Compound 4a, (E) 4-((Cyclopentyl(piperidin-1-yl)methylene)amino)quinolin-2(1H)-one] | 5.9 ± 0.5 µM | 5.5 ± 0.5 µM | 5.1 ± 0.5 µM | 210 °C | 5.5 µM | 85% | 5.4 ± 0.5 µM |  |  | 
Cn1c(=O)cc(/N=C(\C2CCCC2)N2CCCCC2)c2ccccc21 [Compound 4f, (E) 4-((Cyclopentyl(piperidin-1-yl)methylene)amino)-1-methylquinolin-2(1H)-one] | 8 ± 0.8 µM | 7.7 ± 0.8 µM | 7.5 ± 0.8 µM | 142 °C | 7.8 µM | 87% | 7.9 ± 0.8 µM |  |  | 
O=c1cc(/N=C(\C2CCCC2)N2CCOCC2)c2cc(Cl)ccc2[nH]1 [Compound 4j, (E) 4-((Cyclopentyl(morpholino)methylene)amino)-6-chloroquinolin-2(1H)-one] | 3.7 ± 0.3 µM | 3.5 ± 0.3 µM | 2.9 ± 0.3 µM | 247 °C | 3.3 µM | 89% | 3.1 ± 0.3 µM |  |  | 
